The subject of this assay is primary human neutrophils. Format: cell-based. On the procedure:
(§1) Each channel was used of one of four different conditions under investigation: 1) Media control, 2) uniform chemo-attractant, 3) chemo-attractant gradient and 4) chemo-attractant gradient with inhibitor. For conditions 1 and 3 each channel network was wick-filled with EGM2MV cell culture media via the source input port. For condition 2 the channel network was wick-filled with EGM2MV cell culture media containing 10 nM formyl-Met-Leu-Phe (fMLP, Sigma-Aldrich). For condition 4 the channel network was wick-filled with EGM2MV cell culture media containing 5 μM Latrunculin B (Sigma-Aldrich). Next, for conditions 3 and 4, a 1.2 μL drop of 1 μM fMLP was added to the source input using a handheld pipette. For condition 4 the fMLP solution also contained Latrunculin B at the same concentration as the media to ensure a uniform concentration of the inhibitor during the study. This volume flowed into the source volume via passive pumping. Lastly, for all four conditions, a 1.5 μL drop of freshly isolated primary neutrophils at roughly at a concentration of roughly 5,000 cells/μL were added to the cell addition port.
as §1, with “Human neutrophil cell culture media and chemo-attractant solution were prepared using conventional protocols. (See, Nuzzi P A at al., Analysis of neutrophil chemotaxis, Methods in Molecular Biology 370:23-26, 2007). Primary human neutrophils were acquired from donors under approved protocol. (See University of Wisconsin Institutional Review Board and National Institutes of Health Protection concerning protection of human subjects regulations). Four channel networks in a polystyrene device were prepared. Each” for “Each”, “used to test” for “used of”, “different conditions:” for “different conditions under investigation:”

“Also recorded” adds a separate entry of the source.

For the compound `C/C1=C/C(=O)O[C@@H]2C[C@@H](CC[C@H](C)/C=C\CC1)O[C@@](O)([C@@H]1CSC(=O)N1)C2` [Latrunculin B], where the note is “fMLP gradient with uniform 5 μM Latrunculin B, 52 minutes”, the “direction of displacement vectors of cells (preference for migrating up the fMLP gradient)” value is on record as “abolished”. Further, for the setting “fMLP gradient with uniform 5 μM Latrunculin B, cells tracked over 52 minutes”, the “mean total displacement of cells (migration up an fMLP gradient)” value is reported as “strongly inhibited”.
On to formyl-Met-Leu-Phe [fMLP], for which the “direction of displacement vectors of cells” value is on record as “slight preference for migrating up the channel; also recorded: strong preference for migrating in the direction of increasing concentration of the gradient” and the “mean total displacement of cells” value was “migrate further; also recorded: migrated further still”.

The record behind these values is patent US8377685B2, “Microfluidic device having stable static gradient for analyzing chemotaxis” (priority 2007, dated 2013).
